Measured values taken from patent US20110224300A1, “USE OF POTASSIUM 2-(a- HYDROXYPENTYL) BENZOATE IN THE MANUFACTURE OF MEDICAMENTS FOR PREVENTING AND/OR TREATING SENILE [sequence]” (Institute of Mataria Medica, Chinese Academy of Me, priority 2008, published 2011).

How the values were obtained:
[1] = system: GFAP; experiment: GFAP immunohistochemistry, activated astrocytes of 2-VO rats; format: in vivo, rat
Procedure: The method for tissue fixation was described above. Serial coronal sections (40 μm) of the brains were cut through the dorsal hippocampus on a freezing microtome and collected in 6-well plates containing 0.01 M PBS. The detection of GFAP and BDNF immunoreactivity was performed using a conventional avidin-biotin-immunoperoxidease technique.
For quantitative analysis, one from every five samples in a continuous series of hippocampal or cortical tissue sections was taken, and was processed immunohistochemically. Thus, three slides were taken from each rat, and were read under an objective (×1.6) microscope. The total area of positively stained neurons was counted with Image-pro Plus 5.0 software.
Cerebral damage caused by hypoperfusion may be the basis for spatial learning and memory impairment, including earliest white matter damage, accompanied by an increase of astrocytes and microglia activation. Glial fibrillary acidic protein (GFAP) immunohistochemical staining can be used to label the activated astrocytes. 2-3 photos were taken from each selected slices in the same regions. The number of the GFAP positive astrocytes was calculated as the average value of the region. Four anatomical regions were selected to observe: the cortex, hippocampus, corpus callosum and optic tract.

[2] = system: Aβ(25-35)-induced dementia rats; experiment: Morris water maze in Aβ(25-35)-induced dementia rats; format: in vivo, Male Wistar rats; settings: Aβ(25-35) rats; for percentage of time in the target quadrant (probe test): vehicle 21.6±1.6%
Procedure: Subjects were tested in a Morris water maze. This test is based on a standardized assessment of spatial learning ability. The water maze apparatus consisted of a circular, stainless pool (120 cm in diameter, 60 cm in height). It was placed in a dimly lit, sound-proof test room. Multiple distant cues around the room (window, cabinets, furniture) were kept in the same location throughout the experiments. The water was filled to a depth of 40 cm at 25±1° C. and was made opaque by adding milk powder to prevent visualization of the platform. A transparent platform (10 cm diameter) was put 1.5 cm below the surface of the water. The tank was divided into four quadrants with the platform in a fixed position in one quadrant. The subjects were placed into the maze facing the pool wall and were allowed two trials per day, 60 s per trial, to find the hidden platform. If the subject found the platform within the 60 s, it was given a 10-s rest period on the platform between trials. If the pedestal was not located within the time allotted, the subject was placed on to the platform and allowed 10 s until the next trial. The escape latency (time to reach the platform) was used to assess acquisition of the water maze task. Sessions were repeated for five consecutive days. On the sixth day, the platform was removed and the rat was allowed to search for the platform for 60 s (probe test). The time in the platform quadrant and latency time to cross platform location were recorded to measure the spatial learning ability without the influence of chance encounters with the platform. The Morris water maze sessions were recorded with a video camera for offline analysis.
Aβ(25-35)-induced dementia model in 10 months of Male Wistar rats with 600 g B.W. was created by slow injection of 15 nmol (volume of 50) aggregation of Aβ (25-35). Sham-operation group was only injected with PBS (volume of 50). After operation, the animals were injected penicillin 200 000 units for 4 days by intraperitoneal injection.
Rats were divided into four experimental groups randomly (10 rats/each group): one sham-operated group, one vehicle control group, and two dl-PHPB-treated groups (39, and 129 mg/kg). At 1 days after operation, drugs and vehicle were administered orally to rats for 14 days (one time/each day). The spatial learning and memory abilities of rats were detected by Morris water maze in the 9-12 days after operation. The testing of Morris water was commenced at 40 min after drugs treated. The biochemical and pathology assays conducted later (in 24 h) after behavioral testing.
The navigation test was performed in 9-12 days after icy Aβ (25-35) by the same method as the before. On the thirteenth day, the platform was removed and the rat was allowed to search for the platform for 30 s (probe test). The time in the platform quadrant and latency time to cross platform location were recorded to measure the spatial learning ability without the influence of chance encounters with the platform.

[3] = system: SAMP8 mice; experiment: Step down test in SAMP8 mice; format: in vivo; settings: for step-down latency time: vehicle 0.7±0.2, P<0.01
Procedure: (§1) SAMP8 were divided into three experimental groups randomly: one vehicle control group, and two dl-PHPB-treated groups (50, and 160 mg/kg). Drugs and vehicle were administered orally to SAMP8 mice for 35 days (one time/each day). The spatial learning and memory abilities of SAMP8 mice were detected by Morris water maze and DTT-2 jumping apparatus in 31-35 days. The testing was commenced at 40 min after drugs treated. The biochemical and pathology assays conducted later (in 24 h) after behavioral testing.
The step-down avoidance task was performed by using a behavior box (22 cm×15 cm×30 cm each). Each testing chamber has 3 Plexiglas black walls, a clear Plexiglas front wall, metal grid floors and an insulating platform (3 cm diameter, 4 cm height), which is located at one corner of the testing chamber. The metal grids are connected to the output terminals of an electrical stimulator. For the habituation session, each mouse was gently placed on the insulating platform and was allowed to explore in the testing chamber for 3 min before placing back on the platform again. Monophasic pulses (1 ms, 1 Hz, 36 VDC) were continuously delivered for 5 min during the training tria. If the mouse steps down from the platform onto the grid floor, the mouse will be subjected to receive an electric shock until returning to the platform. Then, 24 h after the training, the mice were placed on the platform for assessing their long term memory of retention period. The electric shocks were delivered for 5 min and the latency to step down on the grid with four paws for the first time (step-down latency) and the numbers of errors subjected to shocks within 5 min were recorded.

[4] = system: Mitochondrial ATPase; experiment: Cortex mitochondrial ATPase activity in SAMP8 mice; format: in vivo; settings: 160 mg/kg oral, 35 days, vehicle 8.58±0.21, significant
Procedure: The biochemical assays were conducted later (in 24 h) after behavioral testing. Eight rats in each group were anesthetized with ether and sacrificed. The brains were quickly removed and cleaned with ice-cold saline. Then the parietal cortex and hippocampus were isolated. For biochemical analysis, the tissues were weighed and homogenized in ice-cold saline with the proportion of 1:9 (w/v). Homogenization (IKA, Germany) was carried out for 2 min in an ice bath. After the homogenates were centrifuged at 2,000×g for 10 min at 4° C. (Sigma, Germany), the supernatant was used for analytical procedures. The levels of choline acetyltransferase (ChAT) SOD, and MDA activities were determined with commercial colorimetric assay kits (Nanjing Jiancheng Bioengineering Institute, China). The content of protein in the supernatant was determined by Bradford method using BSA as standard.
as §1, with “testing. […]” for “testing.”

Compound: CCCCC(O)c1ccccc1C(=O)[O-].[K+] (racemic) [dl-PHPB, Potassium 2-(1-Hydroxypentyl)-benzoate]
- GFAP-positive cells in the hippocampus ([1]; administration of 21 days, P<0.05 or P<0.01): significantly less than in the vehicle group
- GFAP-positive cells in the cortex ([1]; administration of 21 days, in particular dl-PHPB 39 mg/kg (P<0.01)): significantly less than in the vehicle group
- GFAP-positive cells in the optic tract ([1]; dl-PHPB 39 mg/kg, 21 days): significantly less than the vehicle group
- GFAP-positive cells in the hippocampus ([1]; dl-PHPB 39 mg/kg, 21 days, P<0.01): most significant effect
- GFAP positive cells in the corpus callosum ([1]; dl-PHPB 39 mg/kg, P<0.05): significantly decreased level of GFAP positive cells
- GFAP-positive cells in the optic tract ([1]; dl-PHPB 129 mg/kg, 21 days): significantly less than the vehicle group
- GFAP-positive cells in the hippocampus ([1]; dl-PHPB 129 mg/kg, 21 days, P<0.01): most significant effect
- escape latency ([2]; 39 mg/kg orally, 2nd day of training, P<0.05): shorter than sham group
- escape latency ([2]; 39 mg/kg orally, 3rd to 4th days): shorter than vehicle group
- percentage of time in the target quadrant (probe test) ([2]; 39 mg/kg orally, trend only): 24.6±3.0%
- escape latency ([2]; 129 mg/kg orally, 3rd to 4th days, P<0.05 or P<0.01): significantly shorter than vehicle group
- percentage of time in the target quadrant (probe test) ([2]; 129 mg/kg orally, sham 32.8±4.0%, p<0.05 vs vehicle): 30.2±2.5%
- time of the first cross platform (probe test) ([2]; dose not specified): shorten trend
- numbers of errors subjected to shocks ([3]; 50 mg/kg oral, first day of training, vehicle 8.3±0.6, P<0.01): 5.8±0.5
- numbers of errors subjected to shocks ([3]; 50 mg/kg oral, second day, vehicle 4.6±0.3, P<0.05): 3.4±0.3
- step-down latency time ([3]; 50 mg/kg oral): 5.5±0.8
- numbers of errors subjected to shocks ([3]; 160 mg/kg oral, first day of training, vehicle 8.3±0.6, P<0.001): 4.9±0.5
- numbers of errors subjected to shocks ([3]; 160 mg/kg oral, second day, vehicle 4.6±0.3, P<0.01): 2.1±0.3
- step-down latency time ([3]; 160 mg/kg oral): 10.2±2.4
- ATPase activity (cortex mitochondria) [4]: 9.82±0.51 U/mg protein
